# Test results from US8119681B2, “2-[1-phenyl-5-hydroxy or methoxy-4alpha-methyl-hexahydrocyclopenta [ƒ]indazole-5-YL]ethyl phenyl derivatives as glucocorticoid receptor ligands” (Merck Sharp & Dohme Corp., priority 2006, dated 2012).
# Target: T1, human GR (Homo sapiens, UniProt P04150)
# T1 sequence (P04150 1-777): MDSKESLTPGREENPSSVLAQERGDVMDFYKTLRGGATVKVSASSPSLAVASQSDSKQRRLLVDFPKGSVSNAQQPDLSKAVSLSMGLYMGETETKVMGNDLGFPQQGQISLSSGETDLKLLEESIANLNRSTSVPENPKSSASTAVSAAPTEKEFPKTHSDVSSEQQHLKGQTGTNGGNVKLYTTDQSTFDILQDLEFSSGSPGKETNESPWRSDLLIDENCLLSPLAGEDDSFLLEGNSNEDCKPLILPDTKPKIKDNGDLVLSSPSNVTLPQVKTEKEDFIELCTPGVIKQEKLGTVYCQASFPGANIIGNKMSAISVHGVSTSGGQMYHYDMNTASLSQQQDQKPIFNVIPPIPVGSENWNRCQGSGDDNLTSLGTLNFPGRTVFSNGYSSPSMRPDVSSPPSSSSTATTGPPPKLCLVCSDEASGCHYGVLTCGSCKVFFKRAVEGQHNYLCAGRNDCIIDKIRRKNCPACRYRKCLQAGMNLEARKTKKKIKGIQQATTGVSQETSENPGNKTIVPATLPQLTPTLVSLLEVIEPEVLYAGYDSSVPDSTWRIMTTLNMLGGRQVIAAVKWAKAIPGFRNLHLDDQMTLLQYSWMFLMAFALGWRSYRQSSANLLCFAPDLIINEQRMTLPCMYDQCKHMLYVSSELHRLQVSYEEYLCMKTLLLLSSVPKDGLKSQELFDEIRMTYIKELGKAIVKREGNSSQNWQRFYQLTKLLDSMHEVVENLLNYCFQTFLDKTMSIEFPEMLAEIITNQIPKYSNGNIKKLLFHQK
# Assay: Transrepression Assay (GITAR), TNFα-β-lactamase reporter gene in U937 cells
# Assay type: cell-based
# Parameters: U937 cells contain an endogenous glucocorticoid receptor (GR); endogenous in cells; host or cells: U937 cells stably transfected with the TNF-α promoter/β-lactamase reporter only
# Conditions: U-937, read-out: maximal activity in the transrepression assay
# Method in brief: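 Reporter readout used CCF2-AM loading for 70–90 min at room temperature after overnight (~18 h, 37 °C) PMA (5 ng/ml final) and LPS (100 ng/ml final) stimulation of compound-treated (30–45 min) TNFα-β-lactamase U937 cells expressing native GR. Activity was normalised to 100 nM dexamethasone repression.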
row,SMILES,Emax [%]
1,"C[C@]12Cc3cnn(-c4ccc(F)cc4)c3C=C1CC[C@@]2(O)CCc1ccccc1C(O)(C(N)=O)C1CC1 (stereo partly drawn) [Example 200, 2-cyclopropyl-2-(2-{2-[(4αS,5R)-1-(4-fluorophenyl)-5-hydroxy-4α-methyl-1,4,4α,5,6,7-hexahydrocyclopenta[f]indazol-5-yl]ethyl}phenyl)-2-hydroxyacetamide]",5 to 100

# Same assay, conditions: U-937; 100 nM dexamethasone = 100% activity; read-out: maximal activity in the transrepression assay
row,SMILES,Emax [%]
1,"C[C@]12Cc3cnn(-c4ccc(F)cc4)c3C=C1CC[C@@]2(O)CCc1cc(Cl)ccc1C(N)=O [Example 171, 4-chloro-2-{2-[(4αS,5R)-1-(4-fluorophenyl)-5-hydroxy-4α-methyl-1,4,4α,5,6,7-hexahydrocyclopenta[f]indazol-5-yl]ethyl}benzamide]",5 to 100
2,"C[C@]12Cc3cnn(-c4ccc(F)cc4)c3C=C1CC[C@@]2(O)CCc1cc(C(F)(F)F)ccc1C(N)=O [Example 173, 2-{2-[(4α6,5R)-1-(4-fluorophenyl)-5-hydroxy-4α-methyl-1,4,4α,5,6,7-hexahydrocyclopenta[f]indazol-5-yl]ethyl}-4-(trifluoromethyl)benzamide]",5 to 100
3,"C[C@]12Cc3cnn(-c4ccc(F)cc4)c3C=C1CC[C@@]2(O)CCc1ccc(C(F)(F)F)cc1C(N)=O [Example 175, 2-{2-[(4αS,5R)-1-(4-fluorophenyl)-5-hydroxy-4α-methyl-1,4,4α,5,6,7-hexahydrocyclopenta[f]indazol-5-yl]ethyl}-5-(trifluoromethyl)benzamide]",5 to 100
4,"C[C@]12Cc3cnn(-c4ccc(F)c(F)c4)c3C=C1CC[C@@]2(O)CCc1cccc(Cl)c1C(N)=O [Example 176, 2-chloro-6-{2-[(4αS,5R)-1-(3,4-difluorophenyl)-5-hydroxy-4α-methyl-1,4,4α,5,6,7-hexahydrocyclopenta[f]indazol-5-yl]ethyl}benzamide]",5 to 100
5,"C[C@]12Cc3cnn(-c4ccc(F)c(F)c4)c3C=C1CC[C@@]2(O)CCc1cc(Cl)ccc1C(N)=O [Example 177, 4-chloro-2-{2-[(4αS,5R)-1-(3,4-difluorophenyl)-5-hydroxy-4α-methyl-1,4,4α,5,6,7-hexahydrocyclopenta[f]indazol-5-yl]ethyl}benzamide]",5 to 100
6,"C[C@]12Cc3cnn(-c4ccc(F)cc4)c3C=C1CC[C@@]2(O)CCc1cc(F)c(F)cc1C(N)=O [Example 178, 4,5-difluoro-2-{2-[(4αS,5R)-1-(4-fluorophenyl)-5-hydroxy-4α-methyl-1,4,4α,5,6,7-hexahydrocyclopenta[f]indazol-5-yl]ethyl}benzamide]",5 to 100
7,"CO[C@@]1(CCc2ccc(C(F)(F)F)cc2C(N)=O)CCC2=Cc3c(cnn3-c3ccc(F)cc3)C[C@@]21C [Example 179, 2-{2-[(4αS,5R)-1-(4-fluorophenyl)-5-methoxy-4α-methyl-1,4,4α,5,6,7-hexahydrocyclopenta[f]indazol-5-yl]ethyl}-5-(trifluoromethyl)benzamide]",5 to 100
8,"C[C@]12Cc3cnn(-c4ccc(F)cc4)c3C=C1CC[C@@]2(O)CCc1ccc(C#N)cc1C(N)=O [Example 180, 5-cyano-2-{2-[(4αS,5R)-1-(4-fluorophenyl)-5-hydroxy-4α-methyl-1,4,4α,5,6,7-hexahydrocyclopenta[f]indazol-5-yl]ethyl}benzamide]",5 to 100
9,"Cc1ccc(CC[C@]2(O)CCC3=Cc4c(cnn4-c4ccc(F)cc4)C[C@@]32C)c(C(N)=O)c1 [Example 181, 2-{2-[(4αS,5R)-1-(4-fluorophenyl)-5-hydroxy-4α-methyl-1,4,4α,5,6,7-hexahydrocyclopenta[f]indazol-5-yl]ethyl}-5-methylbenzamide]",5 to 100
10,"Cc1cccc(CC[C@]2(O)CCC3=Cc4c(cnn4-c4ccc(F)cc4)C[C@@]32C)c1C(N)=O [Example 182, 2-{2-[(4αS,5R)-1-(4-fluorophenyl)-5-hydroxy-4α-methyl-1,4,4α,5,6,7-hexahydrocyclopenta[f]indazol-5-yl]ethyl}-6-methylbenzamide]",5 to 100
11,"C[C@]12Cc3cnn(-c4ccc(F)cc4)c3C=C1CC[C@@]2(O)CCc1ccc(F)c(F)c1C(N)=O [Example 183, 2,3-difluoro-6-{2-[(4αS,5R)-1-(4-fluorophenyl)-5-hydroxy-4α-methyl-1,4,4α,5,6,7-hexahydrocyclopenta[f]indazol-5-yl]ethyl}benzamide]",5 to 100
12,"C[C@]12Cc3cnn(-c4ccc(Cl)cc4)c3C=C1CC[C@@]2(O)CCc1ccccc1C(N)=O [Example 184, 2-{2-[(4αS,5R)-1-(4-chlorophenyl)-5-hydroxy-4α-methyl-1,4,4α,5,6,7-hexahydrocyclopenta[f]indazol-5-yl]ethyl}benzamide]",5 to 100
13,"Cc1cccc(CC[C@]2(O)CCC3=Cc4c(cnn4-c4ccc(F)c(F)c4)C[C@@]32C)c1C(N)=O [Example 186, 2-{2-[(4αS,5R)-1-(3,4-difluorophenyl)-5-hydroxy-4α-methyl-1,4,4α,5,6,7-hexahydrocyclopenta[f]indazol-5-yl]ethyl}-6-methylbenzamide]",5 to 100
14,"C[C@]12Cc3cnn(-c4cccc(F)c4)c3C=C1CC[C@@]2(O)CCc1ccccc1C(N)=O [Example 187, 2-{2-[(4αS,5R)-1-(3-fluorophenyl)-5-hydroxy-4α-methyl-1,4,4α,5,6,7-hexahydrocyclopenta[f]indazol-5-yl]ethyl}benzamide]",5 to 100
15,"C[C@]12Cc3cnn(-c4ccc(F)cc4)c3C=C1CC[C@@]2(O)CCc1cccc(C(F)(F)F)c1C(N)=O [Example 188, 2-{2-[(4αS,5R)-1-(4-fluorophenyl)-5-hydroxy-4α-methyl-1,4,4α,5,6,7-hexahydrocyclopenta[f]indazol-5-yl]ethyl}-6-(trifluoromethyl)benzamide]",5 to 100
16,"C[C@]12Cc3cnn(-c4ccc(F)cc4)c3C=C1CC[C@@]2(O)CCc1ccc(-c2ccccc2)cc1C(N)=O [Example 190, 4-{2-[(4αS,5R)-1-(4-fluorophenyl)-5-hydroxy-4α-methyl-1,4,4α,5,6,7-hexahydrocyclopenta[f]indazol-5-yl]ethyl}biphenyl-3-carboxamide]",5 to 100
17,"C[C@]12Cc3cnn(-c4ccc(F)cc4)c3C=C1CC[C@@]2(O)CCc1ccccc1C(O)C(N)=O (stereo partly drawn) [Example 192, 2-(2-{2-[(4αS,5R)-1-(4-fluorophenyl)-5-hydroxy-4α-methyl-1,4,4α,5,6,7-hexahydrocyclopenta[f]indazol-5-yl]ethyl}phenyl)-2-hydroxyacetamide]",5 to 100
18,"C[C@]12Cc3cnn(-c4ccc(F)cc4)c3C=C1CC[C@@]2(O)CCc1cc(F)ccc1CC(N)=O [Example 193, 2-(4-fluoro-2-{2-[(4αS,5R)-1-(4-fluorophenyl)-5-hydroxy-4α-methyl-1,4,4α,5,6,7-hexahydrocyclopenta[f]indazol-5-yl]ethyl}phenyl)acetamide]",5 to 100
19,"C[C@]12Cc3cnn(-c4ccc(F)c(F)c4)c3C=C1CC[C@@]2(O)CCc1ccccc1CC(N)=O [Example 195, 2-(2-{2-[(4αS,5R)-1-(3,4-difluorophenyl)-5-hydroxy-4α-methyl-1,4,4α,5,6,7-hexahydrocyclopenta[f]indazol-5-yl]ethyl}phenyl)acetamide]",5 to 100
